Calls of active or inactive are those of the source. How the calls were made is not given here.

One assay is described as follows: lymphoblastoid cell cytotoxicity, dose response, cytotoxicity control, plate reader, dry powder, set 2 (AID 624367). Conditions: Lymphoblastoid cell line (LCL) cytotoxicity, plate reader; at 16 µM (top of the series).
For the compound `C[C@@H]1CN([C@H](C)CO)C(=O)Cc2cc(NC(=O)Cc3ccccc3)ccc2O[C@@H]1CN(C)Cc1ccc(C(F)(F)F)cc1`, the activity change, negative = cytotoxicity was 4.6% (inactive).

Still in this assay, the particulars now being: Lymphoblastoid cell line (LCL) cytotoxicity, plate reader; at 30 µM (top of the series).
Take `CN(C)C(=O)c1cccc(-c2cccc(-c3nc(C(=O)NCc4ccccc4)cc4c3[C@@H](CCO)N([S@](=O)C(C)(C)C)C4)c2)c1`: the activity change, negative = cytotoxicity is 8.17% (inactive).
Same read-out and setting: then `Cc1cc(C(=O)Nc2ccc3c(c2)C(=O)N(C)[C@@H]2CC[C@H](CC(=O)NCc4ccc(-c5ccccc5)cc4)O[C@H]2CO3)no1`, with -7.18% (inactive).

The same assay, now with this note: Lymphoblastoid cell line (LCL) cytotoxicity, plate reader; at 35 µM (top of the series).
Take `COc1ccccc1C(=O)Nc1ccc2c(c1)C(=O)N(C)[C@@H]1CC[C@H](CC(=O)NCCc3ccncc3)O[C@H]1CO2`: the activity change, negative = cytotoxicity was 0.764% (inactive).
Take `COc1cccc(C(=O)Nc2ccc3c(c2)C(=O)N(C)C[C@H](OC)[C@@H](C)CN(CCc2ccccc2)[C@@H](C)CO3)c1`: the activity change, negative = cytotoxicity is -13% (inactive).
On the same count and under the same terms, the result for `CN1C(=O)c2cc(NC(=O)Cc3cccs3)ccc2OC[C@@H]2O[C@H](CC(=O)NCc3ccc(-c4ccccc4)cc3)CC[C@H]21` reads -7.27% (inactive).
With `CC(C)(C)[S@@](=O)N1Cc2cc(C(=O)NCc3ccccc3F)nc(-c3cccc(-c4cccnc4)c3)c2[C@H]1CCO`, the activity change, negative = cytotoxicity was -3.02% (inactive).
Consider `CC(C)NC(=O)N1Cc2cc(C(=O)NC3Cc4ccccc4C3)nc(-c3cccc(-c4cccnc4)c3)c2[C@H]1CCO`, for which the activity change, negative = cytotoxicity was -2.11% (inactive).
Regarding `O=C(C[C@H]1C[C@@H]2c3cc(NC(=O)c4ccc5c(c4)OCO5)ccc3O[C@@H]2[C@@H](CO)O1)NCc1ccc(Oc2ccccc2)cc1`, the activity change, negative = cytotoxicity is -5.15% (inactive).
Same read-out and setting: then `O=C(C[C@H]1C[C@@H]2c3cc(NS(=O)(=O)c4ccc(F)cc4)ccc3O[C@@H]2[C@H](CO)O1)NC1CCCCC1`, with 0.09% (inactive); and `C[C@@H](NC(=O)C[C@@H]1C=C[C@H](NC(=O)Cc2ccccn2)[C@@H](CO)O1)c1ccccc1`, with -4.44% (inactive); and `COC(=O)C[C@H]1C[C@H]2c3cc(NC(=O)CN(C)C)ccc3O[C@H]2[C@H](CO)O1`, with 3.27% (inactive).
As for `CS(=O)(=O)Nc1ccc2c(c1)[C@H]1C[C@@H](CC(=O)NCC3CC3)O[C@@H](CO)[C@H]1O2`, the activity change, negative = cytotoxicity was -1.05% (inactive).
With `CN1C(=O)c2cc(NC(=O)c3ccc(C(F)(F)F)cc3)ccc2OC[C@@H]2O[C@H](CC(=O)NC3Cc4ccccc4C3)CC[C@H]21`, the activity change, negative = cytotoxicity was -1.04% (inactive).
On the same count and under the same terms, then `C[C@H](NC(=O)C[C@@H]1C=C[C@@H](NC(=O)Cc2ccccn2)[C@@H](CO)O1)c1ccccc1`, with -1.09% (inactive); and `Cc1noc(C)c1S(=O)(=O)Nc1ccc2c(c1)C(=O)N([C@H](C)CO)C[C@@H](C)[C@H](CN(C)Cc1ccc(C(F)(F)F)cc1)OCCCC[C@H](C)O2`, with -6.93% (inactive).
The same measure, in the same setting: then `COc1ccccc1CNC(=O)C[C@@H]1C[C@H]2c3cc(NC(=O)c4ccc5c(c4)OCO5)ccc3O[C@H]2[C@H](CO)O1`, with -4.54% (inactive).
On the same count and under the same terms, then `COc1ccc(CNC(=O)c2cc3c(c(-c4cccc(-c5ccc(C#N)cc5)c4)n2)[C@@H](CCO)N([S@](=O)C(C)(C)C)C3)cc1`, with -0.743% (inactive); and `CC(C)NC(=O)N1[C@H](CO)[C@H](c2ccc(C#CC3CCCCC3)cc2)[C@@H]1C#N`, with -1.32% (inactive).
Take `CN(C)c1ccc2c(c1)[C@@H]1C[C@@H](CC(=O)NCc3ccc(Oc4ccccc4)cc3)O[C@@H](CO)[C@@H]1O2`: the activity change, negative = cytotoxicity is 8.56% (inactive).
Still for that read-out and setting: the result for `O=C(Cc1ccccn1)NCC[C@H]1CC[C@@H](NC(=O)Nc2ccc(Cl)cc2)[C@@H](CO)O1` reads -2.19% (inactive); that for `CN(C)C(=O)c1ccc(-c2cccc(-c3nc(C(=O)NCc4ccccc4)cc4c3[C@@H](CCO)N([S@](=O)C(C)(C)C)C4)c2)cc1`, -1.5% (inactive).
On the same count and under the same terms, then `C[C@@H]1CN([C@H](C)CO)C(=O)c2c(c3ccccc3n2C)-c2ccccc2CO[C@@H]1CN(C)C(=O)Nc1ccc(F)cc1`, with -1.38% (inactive).
For `Cc1noc(C)c1S(=O)(=O)Nc1ccc2c(c1)C(=O)N([C@@H](C)CO)C[C@@H](C)[C@H](CN(C)Cc1ccc(C(F)(F)F)cc1)OCCCC[C@@H](C)O2`, the activity change, negative = cytotoxicity is -6.19% (inactive).
With `Cc1noc(C)c1S(=O)(=O)Nc1ccc2c(c1)C(=O)N([C@@H](C)CO)C[C@H](C)[C@@H](CN(C)Cc1ccc(C(F)(F)F)cc1)OCCCC[C@@H](C)O2`, the activity change, negative = cytotoxicity was -4.06% (inactive).
Same read-out and setting: then `O=C(Cc1ccccn1)NCC[C@H]1CC[C@H](NC(=O)Nc2ccc(Cl)cc2)[C@@H](CO)O1`, with 3.54% (inactive).
Still for that read-out and setting: then `C[C@H]1CN([C@@H](C)CO)C(=O)Cc2cc(NC(=O)Cc3ccccc3)ccc2O[C@@H]1CN(C)Cc1ccc(C(F)(F)F)cc1`, with -5.68% (inactive).
Take `COc1cccc(S(=O)(=O)N(C)C[C@@H]2Oc3cc(C4=CCCCC4)ccc3S(=O)(=O)N([C@@H](C)CO)C[C@@H]2C)c1`: the activity change, negative = cytotoxicity was -5.63% (inactive).
With `O=C(Cc1ccccn1)NCC[C@@H]1CC[C@H](NC(=O)Nc2ccc(Cl)cc2)[C@@H](CO)O1`, the activity change, negative = cytotoxicity was 6.35% (inactive).
With `C[C@@H]1CN([C@@H](C)CO)C(=O)Cc2cc(NC(=O)Cc3ccccc3)ccc2O[C@H]1CN(C)Cc1ccc(C(F)(F)F)cc1`, the activity change, negative = cytotoxicity was -7.42% (inactive).
The same measure, in the same setting: the result for `Cc1cc(C(=O)Nc2ccc3c(c2)C(=O)N(C)[C@H]2CC[C@H](CC(=O)NCc4ccc(-c5ccccc5)cc4)O[C@H]2CO3)no1` reads -10.2% (inactive).
For the compound `CC(=O)N(C)C[C@@H]1Oc2cc(C#Cc3ccc(F)cc3)ccc2S(=O)(=O)N([C@H](C)CO)C[C@H]1C`, the activity change, negative = cytotoxicity was 1.69% (inactive).
Turning to `O=C(C[C@@H]1C[C@H]2c3cc(NS(=O)(=O)c4ccc(F)cc4)ccc3O[C@H]2[C@@H](CO)O1)NC1CCCCC1`, the activity change, negative = cytotoxicity was 5.66% (inactive).
On the same count and under the same terms, the result for `O=C(C[C@@H]1C[C@@H]2c3cc(NC(=O)c4cccnc4)ccc3O[C@@H]2[C@H](CO)O1)NCC(F)(F)F` reads -0.745% (inactive); that for `C[C@H](CO)N1C[C@H](C)[C@@H](CN(C)S(=O)(=O)c2cccc(F)c2)Oc2ncc(C#CC3CCCCC3)cc2C1=O`, 4.17% (inactive); that for `COc1ccccc1C#Cc1ccc2c(c1)O[C@H](CN(C)Cc1cccnc1)[C@@H](C)CN([C@@H](C)CO)S2(=O)=O`, -6.79% (inactive).
Still for that read-out and setting: then `Cc1noc(C)c1S(=O)(=O)Nc1ccc2c(c1)C(=O)N([C@@H](C)CO)C[C@@H](C)[C@@H](CN(C)Cc1ccc(C(F)(F)F)cc1)OCCCC[C@@H](C)O2`, with -5.16% (inactive).
As for `C/C=C/c1cccc(-c2nc(C(=O)Nc3nccs3)cc3c2[C@@H](CCO)N(C(=O)NC(C)C)C3)c1`, the activity change, negative = cytotoxicity is 3.79% (inactive).
With `CO[C@H]1CN(C)C(=O)c2ccc(NC(=O)C3CC3)cc2OC[C@H](C)N(C(=O)c2ccccn2)C[C@H]1C`, the activity change, negative = cytotoxicity is -0.57% (inactive).
With `C[C@H](NC(=O)C[C@H]1C[C@@H]2c3cc(NC(=O)c4cccnc4)ccc3O[C@@H]2[C@@H](CO)O1)c1ccccc1`, the activity change, negative = cytotoxicity was -1.74% (inactive).
On to `COc1ccc(NC(=O)N(C)C[C@@H]2Oc3cc(C#CCC(C)C)ccc3S(=O)(=O)N([C@@H](C)CO)C[C@@H]2C)cc1`, for which the activity change, negative = cytotoxicity was -0.055% (inactive).
On the same count and under the same terms, the result for `CC(C)(C)[S@@](=O)N1Cc2cc(C(=O)NCc3ccccn3)nc(-c3cccc(-c4ccccc4F)c3)c2[C@H]1CCO` reads -1.27% (inactive).
The same measure, in the same setting: then `CS(=O)(=O)Nc1ccc2c(c1)[C@@H]1C[C@H](CC(=O)NCC3CC3)O[C@H](CO)[C@@H]1O2`, with 1.53% (inactive); and `C[C@@H](NC(=O)C[C@@H]1C=C[C@H](NC(=O)Cc2ccccn2)[C@H](CO)O1)c1ccccc1`, with 6.45% (inactive); and `C[C@H](NC(=O)C[C@H]1C=C[C@H](NC(=O)Cc2ccccn2)[C@@H](CO)O1)c1ccccc1`, with 0.993% (inactive).
Turning to `COc1ccc(-c2cccc(-c3nc(C(=O)NCC(F)(F)F)cc4c3[C@H](CCO)N([S@@](=O)C(C)(C)C)C4)c2)cc1`, the activity change, negative = cytotoxicity was -13.3% (inactive).
For `C[C@@H]1CN([C@@H](C)CO)C(=O)c2c(c3ccccc3n2C)-c2ccccc2CO[C@H]1CN(C)C(=O)Nc1ccc(F)cc1`, the activity change, negative = cytotoxicity was 3.34% (inactive).
As for `CN(C)c1ccc2c(c1)[C@@H]1C[C@@H](CC(=O)NCc3ccc(Oc4ccccc4)cc3)O[C@H](CO)[C@@H]1O2`, the activity change, negative = cytotoxicity was 4.68% (inactive).
For the compound `COc1cccc(S(=O)(=O)N(C)C[C@@H]2Oc3cc(C4=CCCCC4)ccc3S(=O)(=O)N([C@H](C)CO)C[C@H]2C)c1`, the activity change, negative = cytotoxicity is 7.75% (inactive).
`C[C@H]1CN([C@@H](C)CO)C(=O)c2c(c3ccccc3n2C)-c2ccccc2CO[C@H]1CN(C)C(=O)Nc1ccc(F)cc1`: the activity change, negative = cytotoxicity was 0.119% (inactive).
On the same count and under the same terms, the result for `C[C@@H](NC(=O)C[C@@H]1C=C[C@@H](NC(=O)Cc2ccccn2)[C@@H](CO)O1)c1ccccc1` reads -0.658% (inactive); that for `Cc1cc(C(=O)Nc2ccc3c(c2)C(=O)N(C)[C@H]2CC[C@@H](CC(=O)NCc4ccc(-c5ccccc5)cc4)O[C@H]2CO3)no1`, -17.8% (inactive).
On to `C[C@H](CO)N1C[C@H](C)[C@H](CN(C)Cc2ccc(Oc3ccccc3)cc2)Oc2ccc(NC(=O)CCCN(C)C)cc2C1=O`, for which the activity change, negative = cytotoxicity is -0.446% (inactive).
On the same count and under the same terms, then `C[C@H](CO)N1C[C@H](C)[C@@H](CN(C)Cc2ccc(C(F)(F)F)cc2)Oc2ccc(NC(=O)Cc3ccccc3)cc2CC1=O`, with -0.272% (inactive).

Values taken from PubChem BioAssay AID624367 (Broad Institute, 2012).
